This assay deals with human telomeric G-quadruplex (139-nt GQ strand) in DNA origami nanobowl (DNA, G4) TTACCTTTCCCCTCTGGCAAAACTATTCCGGTAAACTTAGGGTTAGGGTTAGGGTTAGGGTTATTTTTTTTATTTCTTCAGGCTTAACCATGCATTCCGATTGCAGCTTGCATCCATTGCATCGCTTGAATTGTCCAGC
The assay is described as follows: optical tweezers mechanical unfolding, force populations. To be noted: 100 mM KCl, 10 mM MgCl2; 20 mM Tris pH 7.8, 1 mM EDTA; free PDS 20-500 nM; bound populations outside and inside nanobowl rise.

Turning to `NCCOc1cc(C(=O)Nc2cc(OCCN)c3ccccc3n2)nc(C(=O)Nc2cc(OCCN)c3ccccc3n2)c1`, the binding entry was “yes”.

(Values after publication PMC8789071 (2022).)
